Like-named read-outs stand apart in the source and are kept apart here. *1 amine or outer side, *2 acyl side, *3 side chain or, on linkers, in order; H or OH if unused. Where a SMILES comes first, the peptide text is derived from it. Side-chain parts run from the residue outwards. [ ]: non-standard residue; d: D form. The star is where a group is joined. Decanoyl(10-(4-HOOC-PhO)) = O=C(O)c1ccc(OCCCCCCCCCC(=O)*)cc1; αMePhe(2-F) = C[C@](N)(Cc1ccccc1F)C(=O)O; γGlu = O=C(O)[C@H](CCC(=O)[*:2])N[*:1]; C14 diacid = O=C(O)CCCCCCCCCCCCC(=O)*; αMeY = C[C@](N)(Cc1ccc(O)cc1)C(=O)O; αMeL = CC(C)C[C@](C)(N)C(=O)O; Orn = NCCC[C@H](N)C(=O)O; AEEA = NCCOCCOCC(=O)O; Aib = CC(C)(N)C(=O)O
Key:
Format in all cases: cell-based
hGLP-1R = hGLP-1R (Homo sapiens, UniProt P43220); test: Functional cAMP formation (HTRF) in HEK-293 clonal cells expressing hGLP-1R, 0.1% bovine casein, without or with 1.0% human serum albumin; design: expressed in transfected cells; settings: for Emax: percent of maximal response to GLP-1(7-36)NH2; for EC50: cAMP
hGLP-1R, sequence (P43220 24-463): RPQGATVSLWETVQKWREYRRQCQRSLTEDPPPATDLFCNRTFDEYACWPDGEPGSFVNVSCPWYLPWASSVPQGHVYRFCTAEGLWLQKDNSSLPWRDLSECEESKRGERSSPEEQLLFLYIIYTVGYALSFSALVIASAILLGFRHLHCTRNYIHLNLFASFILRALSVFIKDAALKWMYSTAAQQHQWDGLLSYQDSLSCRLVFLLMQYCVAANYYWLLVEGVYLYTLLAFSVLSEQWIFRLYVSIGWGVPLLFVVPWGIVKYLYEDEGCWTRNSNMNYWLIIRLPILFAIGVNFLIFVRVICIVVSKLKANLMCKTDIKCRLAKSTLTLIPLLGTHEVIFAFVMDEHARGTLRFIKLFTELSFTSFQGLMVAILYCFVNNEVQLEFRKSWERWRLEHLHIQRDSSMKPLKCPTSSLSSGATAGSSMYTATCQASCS
Outline: (§1)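 Cells were stimulated with peptide for 30 min at 37° C, then lysed in buffer carrying cAMP-d2 and anti-cAMP Eu3+-cryptate for a competitive HTRF read after at least 60 min at room temperature. The 665/620 nm ratio was converted to nM cAMP against a standard curve.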

hGCGR = biological target: T1, hGCGR (Homo sapiens, UniProt P47871); test: Functional cAMP formation (HTRF) in HEK-293 clonal cells expressing hGCGR, 0.1% bovine casein, without or with 1.0% human serum albumin; settings: cAMP, 37° C.
T1 construct: expressed in transfected cells
T1 sequence (P47871 26-477): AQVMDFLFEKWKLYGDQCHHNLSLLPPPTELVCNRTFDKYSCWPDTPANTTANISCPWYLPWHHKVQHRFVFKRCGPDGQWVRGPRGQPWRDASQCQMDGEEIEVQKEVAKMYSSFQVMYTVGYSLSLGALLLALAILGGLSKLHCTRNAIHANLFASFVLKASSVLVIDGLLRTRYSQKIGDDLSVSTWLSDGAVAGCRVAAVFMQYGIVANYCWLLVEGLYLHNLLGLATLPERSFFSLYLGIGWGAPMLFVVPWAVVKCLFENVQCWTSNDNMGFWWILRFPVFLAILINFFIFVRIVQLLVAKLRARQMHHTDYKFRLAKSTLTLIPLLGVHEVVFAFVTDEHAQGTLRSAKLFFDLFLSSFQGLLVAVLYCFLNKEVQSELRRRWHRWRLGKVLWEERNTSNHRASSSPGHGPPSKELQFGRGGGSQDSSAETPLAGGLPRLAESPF
Outline: as §1

hGIPR = biological target: T2, hGIPR (Homo sapiens, UniProt P48546); test: Functional cAMP formation (HTRF) in HEK-293 clonal cells expressing hGIPR, 0.1% bovine casein, without or with 1.0% human serum albumin; settings: for Emax: percent of maximal response to GIP(1-42)NH2; for EC50: cAMP
T2 construct: expressed in transfected cells
T2 sequence (P48546 22-466): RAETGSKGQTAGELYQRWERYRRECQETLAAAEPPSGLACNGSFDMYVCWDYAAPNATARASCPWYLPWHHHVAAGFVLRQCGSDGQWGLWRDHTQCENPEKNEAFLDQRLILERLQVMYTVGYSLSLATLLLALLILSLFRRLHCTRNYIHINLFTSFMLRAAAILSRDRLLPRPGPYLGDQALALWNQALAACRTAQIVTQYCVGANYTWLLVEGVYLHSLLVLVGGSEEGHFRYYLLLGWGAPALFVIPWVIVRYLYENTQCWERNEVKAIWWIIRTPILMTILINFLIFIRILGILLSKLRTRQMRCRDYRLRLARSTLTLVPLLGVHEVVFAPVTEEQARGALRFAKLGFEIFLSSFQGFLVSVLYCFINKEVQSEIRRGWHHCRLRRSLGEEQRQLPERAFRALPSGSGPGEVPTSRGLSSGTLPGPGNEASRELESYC
Outline: as §1

[1] = hGLP-1R EC50, nM (SEM, n), 37° C., 0.1% bovine casein (no human serum albumin), geometric mean
[2] = hGCGR EC50, nM (SEM, n), 0.1% bovine casein (no human serum albumin), geometric mean
[3] = hGCGR EC50, nM (SEM, n), 0.1% bovine casein and 1.0% human serum albumin, geometric mean (SEM, n)
[4] = HEK293, read-out: hGIPR Emax, % ± SEM, cAMP, 37° C., 0.1% bovine casein and 1.0% human serum albumin
[5] = hGIPR EC50, nM (SEM, n), 37° C., 0.1% bovine casein (no human serum albumin), geometric mean
[6] = HEK293, read-out: hGLP-1R Emax, % ± SEM, cAMP, 37° C., 0.1% bovine casein and 1.0% human serum albumin

Row | Compound | Emax (hGLP-1R; HEK293, cAMP, 37° C., 0.1% bovine casein and 1.0% human serum albumin, read-out: hGLP-1R Emax, % ± SEM) | Emax (hGLP-1R; HEK293, cAMP, 37° C., 0.1% bovine casein, arithmetic mean, read-out: hGLP-1R Emax, % ± SEM) | EC50 (hGLP-1R; 37° C., 0.1% bovine casein (no human serum albumin), geometric mean, read-out: hGLP-1R EC50, nM (SEM, n)) | EC50 (hGCGR; 0.1% bovine casein (no human serum albumin), geometric mean, read-out: hGCGR EC50, nM (SEM, n)) | EC50 (hGCGR; 0.1% bovine casein and 1.0% human serum albumin, geometric mean (SEM, n), read-out: hGCGR EC50, nM (SEM, n)) | Emax (hGIPR; HEK293, cAMP, 37° C., 0.1% bovine casein and 1.0% human serum albumin, read-out: hGIPR Emax, % ± SEM) | EC50 (hGIPR; 37° C., 0.1% bovine casein (no human serum albumin), geometric mean, read-out: hGIPR EC50, nM (SEM, n)) | EC50 (hGIPR; 37° C., 0.1% bovine casein and 1.0% human serum albumin, geometric mean (SEM, n), read-out: hGIPR EC50, nM (SEM, n)) | EC50 (hGLP-1R; [1]) | EC50 (hGCGR; [2]) | EC50 (hGCGR; [3]) | Emax (hGIPR; [4]) | EC50 (hGIPR; [5]) | Emax (hGLP-1R; [6]) | Emax (hGLP-1R; HEK293, read-out: hGLP-1R Emax, % ± SEM, cAMP, 37° C., 0.1% bovine casein, arithmetic mean) | EC50 (hGLP-1R; hGLP-1R EC50, nM (SEM, n), 37° C., 0.1% bovine casein and 1.0% human serum albumin, geometric mean (SEM, n)) | EC50 (hGIPR; hGIPR EC50, nM (SEM, n), 37° C., 0.1% bovine casein and 1.0% human serum albumin, geometric mean (SEM, n))
1 | CC[C@H](C)[C@H](NC(=O)[C@H](CC(C)C)NC(=O)[C@](C)(Cc1ccc(O)cc1)NC(=O)[C@@H](CCC(=O)O)NC(=O)[C@@H](NC(=O)[C@H](Cc1ccccc1)NC(=O)[C@H](CCCCNC(=O)COCCOCCNC(=O)COCCOCCNC(=O)CC[C@H](NC(=O)CCCCCCCCCCCCC(=O)O)C(=O)O)NC(=O)C(C)(C)NC(=O)[C@H](CCC(N)=O)NC(=O)[C@H](C)NC(=O)[C@H](CCCCNC(=O)COCCOCCNC(=O)COCCOCCNC(=O)CC[C@H](NC(=O)CCCCCCCCCCCCC(=O)O)C(=O)O)NC(=O)[C@H](CCCN)NC(=O)[C@H](CC(=O)O)NC(=O)[C@H](CC(C)C)NC(=O)[C@](C)(CC(C)C)NC(=O)[C@@H](NC(=O)C(C)(C)NC(=O)[C@@H](NC(=O)[C@H](CC(=O)O)NC(=O)[C@H](CO)NC(=O)[C@@H](NC(=O)[C@](C)(Cc1ccccc1F)NC(=O)[C@@H](NC(=O)CNC(=O)[C@H](CCC(=O)O)NC(=O)C(C)(C)NC(=O)[C@@H](N)Cc1ccc(O)cc1)[C@@H](C)O)[C@@H](C)O)C(C)C)[C@@H](C)CC)[C@@H](C)CC)C(=O)N[C@@H](CCCN)C(=O)NCC(=O)NCC(=O)N1CCC[C@H]1C(=O)N[C@@H](CO)C(=O)N[C@@H](CO)C(=O)NCC(=O)N[C@@H](C)C(=O)N1CCC[C@H]1C(=O)N1CCC[C@H]1C(=O)N1CCC[C@H]1C(=O)N[C@@H](CO)C(N)=O [Example 407] (H-Y[Aib]EGT[αMePhe(2-F)]TSDV[Aib]I[αMeL]LD[Orn]K([AEEA-AEEA-γGlu-C14 diacid])AQ[Aib]K([AEEA-AEEA-γGlu-C14 diacid])FI[dE][αMeY]LI[Orn]GGPSSGAPPPS-NH2) | 97.2% | 100% | 0.156 nM | > 9950 nM | > 9950 nM | 95.4% | 0.0114 nM | 1.87 nM | – | – | – | – | – | – | – | – | –
2 | CC[C@H](C)[C@H](NC(=O)[C@H](CC(C)C)NC(=O)[C@](C)(Cc1ccc(O)cc1)NC(=O)[C@@H](CCC(=O)O)NC(=O)[C@@H](NC(=O)[C@H](Cc1ccccc1)NC(=O)[C@H](CCCCNC(=O)COCCOCCNC(=O)COCCOCCNC(=O)CC[C@H](NC(=O)CCCCCCCCCOc1ccc(C(=O)O)cc1)C(=O)O)NC(=O)C(C)(C)NC(=O)[C@H](CCC(N)=O)NC(=O)[C@H](C)NC(=O)[C@H](CCCCNC(=O)COCCOCCNC(=O)COCCOCCNC(=O)CC[C@H](NC(=O)CCCCCCCCCOc1ccc(C(=O)O)cc1)C(=O)O)NC(=O)[C@H](CCCN)NC(=O)[C@H](CC(=O)O)NC(=O)[C@H](CC(C)C)NC(=O)[C@](C)(CC(C)C)NC(=O)[C@@H](NC(=O)C(C)(C)NC(=O)[C@H](Cc1ccncc1)NC(=O)[C@H](CC(=O)O)NC(=O)[C@H](CO)NC(=O)[C@@H](NC(=O)[C@](C)(Cc1ccccc1F)NC(=O)[C@@H](NC(=O)CNC(=O)[C@H](CCC(=O)O)NC(=O)C(C)(C)NC(=O)[C@@H](N)Cc1ccc(O)cc1)[C@@H](C)O)[C@@H](C)O)[C@@H](C)CC)[C@@H](C)CC)C(=O)N[C@@H](CCCN)C(=O)NCC(=O)NCC(=O)N1CCC[C@H]1C(=O)N[C@@H](CO)C(=O)N[C@@H](CO)C(=O)NCC(=O)N[C@@H](C)C(=O)N1CCC[C@H]1C(=O)N1CCC[C@H]1C(=O)N1CCC[C@H]1C(=O)N[C@@H](CO)C(N)=O [Example 408] | – | – | – | – | – | – | – | – | 0.227 nM | > 9950 nM | > 9950 nM | 84.4% | 0.00888 nM | – | – | – | –
3 | CC[C@H](C)[C@H](NC(=O)[C@H](CC(C)C)NC(=O)[C@](C)(Cc1ccc(O)cc1)NC(=O)[C@@H](CCC(=O)O)NC(=O)[C@@H](NC(=O)[C@H](Cc1ccccc1)NC(=O)[C@H](CCCCNC(=O)COCCOCCNC(=O)COCCOCCNC(=O)CC[C@H](NC(=O)CCCCCCCCCOc1ccc(C(=O)O)cc1)C(=O)O)NC(=O)C(C)(C)NC(=O)[C@H](CCC(N)=O)NC(=O)[C@H](C)NC(=O)[C@H](CCCCNC(=O)COCCOCCNC(=O)COCCOCCNC(=O)CC[C@H](NC(=O)CCCCCCCCCOc1ccc(C(=O)O)cc1)C(=O)O)NC(=O)[C@H](CCCN)NC(=O)[C@H](CC(=O)O)NC(=O)[C@H](CC(C)C)NC(=O)[C@](C)(CC(C)C)NC(=O)[C@@H](NC(=O)C(C)(C)NC(=O)[C@H](Cc1ccc(O)cc1)NC(=O)[C@H](CC(=O)O)NC(=O)[C@H](CO)NC(=O)[C@@H](NC(=O)[C@](C)(Cc1ccccc1F)NC(=O)[C@@H](NC(=O)CNC(=O)[C@H](CCC(=O)O)NC(=O)C(C)(C)NC(=O)[C@@H](N)Cc1ccc(O)cc1)[C@@H](C)O)[C@@H](C)O)[C@@H](C)CC)[C@@H](C)CC)C(=O)N[C@@H](CCCN)C(=O)NCC(=O)NCC(=O)N1CCC[C@H]1C(=O)N[C@@H](CO)C(=O)N[C@@H](CO)C(=O)NCC(=O)N[C@@H](C)C(=O)N1CCC[C@H]1C(=O)N1CCC[C@H]1C(=O)N1CCC[C@H]1C(=O)N[C@@H](CO)C(N)=O [Example 409] (H-Y[Aib]EGT[αMePhe(2-F)]TSDY[Aib]I[αMeL]LD[Orn]K([AEEA-AEEA-γGlu-Decanoyl(10-(4-HOOC-PhO))])AQ[Aib]K([AEEA-AEEA-γGlu-Decanoyl(10-(4-HOOC-PhO))])FI[dE][αMeY]LI[Orn]GGPSSGAPPPS-NH2; N-terminus assumed) | – | – | – | – | – | – | – | – | 0.188 nM | > 9950 nM | > 9950 nM | 84% | 0.00928 nM | 97.7% | – | – | –
4 | CC[C@H](C)[C@H](NC(=O)[C@H](CC(C)C)NC(=O)[C@](C)(Cc1ccc(O)cc1)NC(=O)[C@@H](CCC(=O)O)NC(=O)[C@@H](NC(=O)[C@H](Cc1ccccc1)NC(=O)[C@H](CCCCNC(=O)COCCOCCNC(=O)COCCOCCNC(=O)CC[C@H](NC(=O)CCCCCCCCCOc1ccc(C(=O)O)cc1)C(=O)O)NC(=O)C(C)(C)NC(=O)[C@H](CCC(N)=O)NC(=O)[C@H](C)NC(=O)[C@H](CCCCNC(=O)COCCOCCNC(=O)COCCOCCNC(=O)CC[C@H](NC(=O)CCCCCCCCCOc1ccc(C(=O)O)cc1)C(=O)O)NC(=O)[C@H](CCCN)NC(=O)[C@H](CC(=O)O)NC(=O)[C@H](CC(C)C)NC(=O)[C@](C)(CC(C)C)NC(=O)[C@@H](NC(=O)C(C)(C)NC(=O)[C@@H](NC(=O)[C@H](CC(=O)O)NC(=O)[C@H](CO)NC(=O)[C@@H](NC(=O)[C@](C)(Cc1ccccc1F)NC(=O)[C@@H](NC(=O)CNC(=O)[C@H](CCC(=O)O)NC(=O)C(C)(C)NC(=O)[C@@H](N)Cc1ccc(O)cc1)[C@@H](C)O)[C@@H](C)O)C(C)C)[C@@H](C)CC)[C@@H](C)CC)C(=O)N[C@@H](CCCN)C(=O)NCC(=O)NCC(=O)N1CCC[C@H]1C(=O)N[C@@H](CO)C(=O)N[C@@H](CO)C(=O)NCC(=O)N[C@@H](C)C(=O)N1CCC[C@H]1C(=O)N1CCC[C@H]1C(=O)N1CCC[C@H]1C(=O)N[C@@H](CO)C(N)=O [Example 410] (H-Y[Aib]EGT[αMePhe(2-F)]TSDV[Aib]I[αMeL]LD[Orn]K([AEEA-AEEA-γGlu-Decanoyl(10-(4-HOOC-PhO))])AQ[Aib]K([AEEA-AEEA-γGlu-Decanoyl(10-(4-HOOC-PhO))])FI[dE][αMeY]LI[Orn]GGPSSGAPPPS-NH2) | – | – | – | – | – | – | – | – | 0.251 nM | > 9950 nM | > 9950 nM | 86.4% | 0.0118 nM | 93.1% | 94% | 11 nM | 1.28 nM
